Reference: patent US10669271B2, “Heterocyclic compounds as immunomodulators” (Incyte Corporation, priority 2018, dated 2020)

Legend:
PD-1/PD-L1 = PD-1/PD-L1 (Homo sapiens (Human), UniProt Q9NZQ7); test: Homogeneous Time-Resolved Fluorescence (HTRF) PD-1/PD-L1 binding assay; details: recombinant human PD-1 and PD-L1, 25° C., pH 7.4
In short: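 His-tagged PD-L1 (19-238, 10 nM) and Fc-tagged PD-1 (25-167, 3 nM) preincubated 40 min with inhibitors in PBS pH 7.4, 0.05% Tween-20, 0.1% BSA, 1% DMSO, 25 °C. Eu anti-IgG (1 nM) and anti-His-APC (20 nM) added, 60 min at 25 °C; 665/620 nm ratio fitted for IC50.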

[1] = test system: U2OS/PD-L1 cells and Jurkat-PD-1-SHP cells; test: Src homology region 2 domain-containing phosphatase (SHP) assay; type: cell-based; details: Homo sapiens; U2OS/PD-L1 cells with Jurkat-PD-1-SHP cells, 2 hours
In short: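 U2OS/PD-L1 cells (5000/well) in RPMI1640 with 1% FBS were treated with serially diluted compounds (0.05% DMSO final) and co-incubated with 5,000 Jurkat-PD-1-SHP cells for 2 h at 37 °C. PathHunter enzyme-fragment chemiluminescence was read after 1 h at room temperature. IC50 came from percent-of-control activity versus log concentration.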

[2] = test system: PD-L1 aAPC/CHO-K1 cells and Jurkat-PD-1-NFAT effector cells; test: Nuclear factor of activated T-cells (NFAT) assay; type: cell-based; details: Cricetulus griseus; PD-L1 aAPC/CHO-K1 cells with Jurkat-PD-1-NFAT effector cells, 24 hours
In short: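 PD-L1 aAPC/CHO-K1 cells co-cultured with Jurkat-PD-1-NFAT effector cells in RPMI 1640 with 1% FBS, compound top concentration 2 μM, 0.4% DMSO, 24 h at 37 °C. Bio-Glo luminescence read; fold induction normalized to DMSO wells, maximum induction relative to control compound, EC50 from percent control activity versus log concentration.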

PD-L1 = PD-L1 (Homo sapiens (Human), UniProt Q9NZQ7); test: PD-L1 whole blood internalization assay; type: cell-based; details: 1 ng/ml human interferon γ, PD-L1 expression on CD14+ cells, read-out: Whole Blood (24 HR) IC50
PD-L1, sequence (Q9NZQ7 19-290): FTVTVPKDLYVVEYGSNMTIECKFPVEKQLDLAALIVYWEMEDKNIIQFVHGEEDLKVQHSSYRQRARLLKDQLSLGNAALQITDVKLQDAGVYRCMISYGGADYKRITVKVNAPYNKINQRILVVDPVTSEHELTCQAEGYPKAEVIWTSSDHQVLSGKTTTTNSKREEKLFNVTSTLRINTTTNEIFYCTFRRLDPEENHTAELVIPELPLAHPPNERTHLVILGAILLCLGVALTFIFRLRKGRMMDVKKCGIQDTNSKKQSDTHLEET
In short: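 Normal human whole blood was exposed to a range of test compound concentrations together with 1 ng/ml human interferon γ, then stained for PD-L1 and CD14 for 30 minutes at room temperature in the dark. After red cell lysis/fixation and centrifugation, CD14+ cells were analyzed by flow cytometry for PD-L1 MFI, and IC50 values came from percent inhibition versus log concentration fits.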

PD-1/PD-L1, sequence (Q9NZQ7 19-238): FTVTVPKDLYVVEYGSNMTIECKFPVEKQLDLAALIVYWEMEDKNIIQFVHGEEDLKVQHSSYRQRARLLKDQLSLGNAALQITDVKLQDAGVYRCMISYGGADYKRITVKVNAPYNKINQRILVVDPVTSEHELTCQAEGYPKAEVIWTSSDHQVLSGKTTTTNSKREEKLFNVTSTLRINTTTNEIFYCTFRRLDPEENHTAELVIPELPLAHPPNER

In the case of Cc1nc(Nc2cccc(-c3cccc(-c4nc5cc(CN6CCC(C(=O)O)CC6)cc(C#N)c5o4)c3C)c2C)c2ncc(CN3CC[C@@](C)(O)C3)cc2n1 [Example 2, (R)-1-((7-cyano-2-(3′-(7-((3-hydroxy-3-methylpyrrolidin-1-yl)methyl)-2-methylpyrido[3,2-d]pyrimidin-4-ylamino)-2,2′-dimethylbiphenyl-3-yl)benzo[d]oxazol-5-yl)methyl)piperidine-4-carboxylic Acid], the IC50 (PD-1/PD-L1) is reported as ≤ 10 nM, the IC50 [1] is reported as ≤ 10 nM and the EC50 [2] is reported as 10 to 100 nM. It also gave an IC50 (PD-L1) of 10 to 100 nM.
With Cc1nc(Nc2cccc(-c3cccc(-c4nc5cc(CN6CCC(C(=O)O)CC6)cc(C#N)c5o4)c3C)c2C)c2ncc(CN[C@@H](C)CO)cc2n1 [Example 4, (S)-1-((7-cyano-2-(3′-(7-((1-hydroxypropan-2-ylamino)methyl)-2-methylpyrido[3,2-d]pyrimidin-4-ylamino)-2,2′-dimethylbiphenyl-3-yl)benzo[d]oxazol-5-yl)methyl)piperidine-4-carboxylic Acid] the IC50 (PD-1/PD-L1) was ≤ 10 nM, the IC50 [1] was ≤ 10 nM and the EC50 [2] was 10 to 100 nM. It also gave an IC50 (PD-L1) of 10 to 100 nM.
Cc1c(Nc2nc(N)nc3cc(CN4CC[C@@H](O)C4)cnc23)cccc1-c1cccc(-c2nc3cc(CN4CCC(C(=O)O)CC4)cc(C#N)c3o2)c1C [Example 29, (R)-1-((2-(3′-(2-amino-7-((3-hydroxypyrrolidin-1-yl)methyl)pyrido[3,2-d]pyrimidin-4-ylamino)-2,2′-dimethylbiphenyl-3-yl)-7-cyanobenzo[d]oxazol-5-yl)methyl)piperidine-4-carboxylic Acid] was tested, and the IC50 (PD-1/PD-L1) was ≤ 10 nM, the IC50 [1] was ≤ 10 nM and the EC50 [2] was 10 to 100 nM. The IC50 (PD-L1) was 10 to 100 nM.
Cc1nc(Nc2cccc(-c3cccc(-c4nc5cc(CN6CC[C@@H](C(=O)O)C6)cc(C#N)c5o4)c3C)c2C)c2ncc(CN3CC[C@@H](O)C3)cc2n1 [Example 6, (R)-1-((7-cyano-2-(3′-(7-(((R)-3-hydroxypyrrolidin-1-yl)methyl)-2-methylpyrido[3,2-d]pyrimidin-4-ylamino)-2,2′-dimethylbiphenyl-3-yl)benzo[d]oxazol-5-yl)methyl)pyrrolidine-3-carboxylic Acid] was tested, and the IC50 (PD-1/PD-L1) was ≤ 10 nM, the IC50 [1] was ≤ 10 nM and the EC50 [2] was 10 to 100 nM. It also gave an IC50 (PD-L1) of 10 to 100 nM.
In the case of Cc1nc(Nc2cccc(-c3cccc(-c4nc5cc(CN6CC[C@@](C)(C(=O)O)C6)cc(C#N)c5o4)c3C)c2C)c2ncc(CN3CC[C@@H](O)C3)cc2n1 [Example 11, (R)-1-((7-cyano-2-(3′-(7-(((R)-3-hydroxypyrrolidin-1-yl)methyl)-2-methylpyrido[3,2-d]pyrimidin-4-ylamino)-2,2′-dimethylbiphenyl-3-yl)benzo[d]oxazol-5-yl)methyl)-3-methylpyrrolidine-3-carboxylic Acid], the IC50 (PD-1/PD-L1) is reported as ≤ 10 nM, the IC50 [1] is reported as ≤ 10 nM and the EC50 [2] is reported as 10 to 100 nM. It also gave an IC50 (PD-L1) of 10 to 100 nM.
Cc1nc(Nc2cccc(-c3cccc(-c4nc5cc(CN6CC[C@@](C)(C(=O)O)C6)cc(C#N)c5o4)c3C)c2C)c2ncc(CN3CC[C@](C)(O)C3)cc2n1 [Example 13, (R)-1-((7-cyano-2-(3′-(7-(((S)-3-hydroxy-3-methylpyrrolidin-1-yl)methyl)-2-methylpyrido[3,2-d]pyrimidin-4-ylamino)-2,2′-dimethylbiphenyl-3-yl)benzo[d]oxazol-5-yl)methyl)-3-methylpyrrolidine-3-carboxylic Acid] was tested, and the IC50 (PD-1/PD-L1) was ≤ 10 nM, the IC50 [1] was ≤ 10 nM and the EC50 [2] was 10 to 100 nM. It also gave an IC50 (PD-L1) of 10 to 100 nM.
Cc1nc(Nc2cccc(-c3cccc(-c4nc5cc(CN6CCC(C(=O)O)CC6)cc(C#N)c5o4)c3C)c2C)c2ncc(CNC[C@H](C)O)cc2n1 [Example 5, (S)-1-((7-cyano-2-(3′-(7-((2-hydroxypropylamino)methyl)-2-methylpyrido[3,2-d]pyrimidin-4-ylamino)-2,2′-dimethylbiphenyl-3-yl)benzo[d]oxazol-5-yl)methyl)piperidine-4-carboxylic Acid] was tested, and the IC50 (PD-1/PD-L1) was ≤ 10 nM, the IC50 [1] was 10 to 100 nM and the EC50 [2] was 10 to 100 nM. For the same compound, the IC50 (PD-L1) was 100 to 500 nM.
